Converted amounts (≈) assume the structure as drawn. Read-outs that look alike come from different tables or passages of the source.
How the values were obtained:
[1] = test system: resistant green rice leafhopper (collected at Nakagawara); experiment: Test 3: Effect on Resistant Green Rice Leafhopper; format: in vivo, Nephotettix cincticeps Uhler; settings: Nephotettix cincticeps, 24 h, read-out: Mortality (%) Green Rice Leafhopper Collected at Nakagawara
Experimental: (§1) To a mixture of 20 parts of the compound of the present invention and 20 parts of Sorpol SM-200 (registered trademark for the product supplied by Toho Chemical Industrial Co., Ltd.) was added 60 parts of xylol, and the mixture was sufficiently blended. The obtained emulsifiable concentrate was diluted at a predetermined concentration with distilled water, and the obtained dilution was used.
(§2) Seedlings (having 2 to 3 leaves) of paddy rice were hydroponically cultured in a pot having a diameter of 5 cm. A chemical dilution having a concentration of 100 or 20 ppm, prepared in the same manner as described in Test 1, was applied with a sprayer at a rate of 3 ml per pot. The treated seedlings were air-dried and covered with a metal net cylinder, and female adults of resistant green rice leafhopper (collected at Nakagawara) and sensitive green rice leafhopper (collected at Chigasaki) were set, respectively, free in the pot at a density of 10 adults per pot. After of 24 hours, the numbers of killed and living adults were counted and the mortality was calculated. The test was made on three pots and the average value was calculated.

[2] = test system: sensitive green rice leafhopper (collected at Chigasaki); experiment: Test 3: Effect on Sensitive Green Rice Leafhopper; format: in vivo; settings: Nephotettix cincticeps, female adults, 24 hours
Experimental: as §1, §2

two-spotted spider mite = experiment: Test 6: Effect on Two-Spotted Spider mite adults; format: in vivo; settings: Tetranychus urticae; 500 ppm; adults; 24 hours; read-out: Mortality (%)
Experimental: as §1
A kidney bean leaf disc perforated with a cork borer (15 mm in diameter) was placed on water-impreganated absorbent cotton (2 cm×2 cm), and 10 adults of two-spotted spider mite were set free. A chemical dilution having a concentration of 500 ppm was applied with an applicator in an amount of 3 ml.
The leaf disc-placed absorbent cotton was placed in a thermostat chamber maintained at 25° C. After 24 hours, the number of killed adults was counted and the mortality was calculated. The test was made on three leaf discs and the average value was calculated.

Test 8: Fish Toxicity = format: in vivo; settings: carp, water, carps, concentration at which 1/2 of the test fishes were killed, read-out: Fish Toxicity, TLm48
Experimental: A water tank having a width of 60 cm, a length of 30 cm and a height of 40 cm was filled with water, and 10 yearling carps having a body length of about 5 cm were set free in the tank and adapted to the environment in the tank. A test compound was applied so that the concentration in water was 10, 1, or 0.1 ppm. After 48 hours, the numbers of killed and living carps were counted and the influences on the fishes were examined.

[3] = test system: third-instar larvae of diamond back moth; experiment: Test 4: Effect on Diamond Back Moth; format: in vivo; settings: Plutella xylostella, 24 hours
Experimental: as §1
Cabbage leaves were spread in a plastic cup, and 10 third-instar larvae of diamond back moth were set free in the cup.
A chemical dilution having a concentration of 100 or 20 ppm, prepared in the same manner as described in Test 1, was applied from an applicator at a rate of 3 ml per cup.
After scattering of the chemical dilution, the cup was covered, and after 24 hours, the numbers of killed and living larvae were counted and the mortality was calculated. The test was made on three cups and the average value was calculated.

green peach aphids = experiment: Test 5: Effect on green peach Aphid; format: in vivo; settings: Myzus persicae, 24 hours, mortality class, read-out: Insecticidal Activity
Experimental: as §1
Seedlings (having 3 to 4 leaves) of an eggplant grown on a pot were inoculated with green peach aphids and the insects were allowed to grow. The number of the insects was counted. A chemical dilution having a concentration of 100 ppm, prepared in the same manner as described in Test 1, was applied with a spray gun at a rate of 10 ml per pot. Then, the pot was placed in a glass green house. After 24 hours, the number of living insects was counted and the mortality was calculated.
The test was made on three pots, and the average value was calculated. In Table 6, mark "A" indicates a mortality higher than 95%, mark "B" indicates a mortality of 80 to 95%, mark "C" indicates a mortality of 50 to 80%, and mark "D" indicates a mortality lower than 50%.

German cockroach = experiment: Test 7: Effect on German Cockroach; format: in vivo; settings: Blattella germanica, male adults, 24 hours, agonized and killed; for mortality at 10 mg/m2: 10 mg/m^2; for mortality at 50 mg/m2: 50 mg/m^2
Experimental: The bottom face of a high Petri dish having a diameter of 9 cm and a height of 9 cm was treated with 50 or 10 mg/m^2 of a test compound and the dish was air-dried. In order to prevent the adults from escaping from the dish, the inner wall of the dish was treated with butter. Then, 10 male adults of German cockroach were set free in each dish, and the dish was placed in a thermostat chamber maintained at 25° C. After 24 hours, the number of agonized and killed adults was counted. The test was made on two dishes and the average value was calculated.

[4] = Test 9: Toxicity Test (acute oral, mice); settings: mouse, in vivo, po
Experimental: In the fish toxicity test, the test compound was dissolved in acetone to form a 1% solution, and a predetermined amount of the solution was used. In the mouse toxicity test, the test compound of the present invention was dissolved or suspended in corn oil, and a predetermined amount of the solution or suspension was used.
A predetermined amount of a solution or suspension of a test compound in corn oil was orally administered to male mice having a body weight of 19 to 23 g (0.2 ml per 10 g of the body weight). After 7 days, the number of killed mice was counted and the influences on the mice were examined.

[5] = test system: Second-instar and fifth-instar larvae of tobacco cutworm; experiment: Test 2: Tobacco Cutworm Larva Dipping Test; format: in vivo
Experimental: as §1
A dilution having a chemical concentration of 100 or 20 ppm was prepared in the same manner as described in Test 1.
Second-instar and fifth-instar larvae of tobacco cutworm were dipped in the dilution for 5 seconds, and the excessive dilution was removed by a filter paper. Then, the larvae were set free in a plastic cup and an artificial diet was supplied thereto. The cup was allowed to stand still in a thermostat chamber maintained at 25° C. After 24 hours, the numbers of the killed and living larvae were counted and the mortality was calculated. The test was made on three cups and the result was expressed by an average value.

[6] = topical, 24 h, read-out: Mortality (%) Fifth-Instar Larvae

Compound | mortality at 20 ppm [1] | mortality at 100 ppm [1] | mortality at 20 ppm [2] | mortality at 100 ppm [2] | mortality at 500 ppm (two-spotted spider mite) | LC50 at 48 h (Test 8: Fish Toxicity) | mortality at 20 ppm [3] | mortality at 100 ppm [3] | mortality at 100 ppm (green peach aphids) | mortality at 10 mg/m2 (German cockroach) | mortality at 50 mg/m2 (German cockroach) | LD50 at 168 h [4] | mortality at 20 ppm ([5]; 20 ppm, second-instar larvae, 24 hours, read-out: Mortality (%) Second-Instar Larvae) | mortality at 100 ppm ([5]; 100 ppm, second-instar larvae, 24 hours, read-out: Mortality (%) Second-Instar Larvae) | mortality at 20 ppm [5, 6] | mortality at 100 ppm [5, 6]
CC(C)(COCc1ccc(F)c(Oc2ccccc2)c1)c1ccc(OC2CCCCC2)cc1 [Compound 46, 3-Phenoxy-4-fluorobenzyl 2-(4-cyclohexyloxyphenyl)-2-methylpropyl ether] | 100% | 100% | 100% | 100% | 100% | > 1 µg/mL |  |  |  |  |  |  |  |  |  | 
CCOc1ccc(C(C)(C)CSCc2ccc(F)c(Oc3ccccc3)c2)cc1Cl [Compound 51] |  |  |  |  | 90% |  | 80% | 100% | > 95% | 100% | 100% | > 500 mg/kg |  |  |  | 
COCSc1ccc(C(C)(C)COCc2ccc(F)c(Oc3ccccc3)c2)cc1 [Compound 60, 3-Phenoxy-4-fluorobenzyl 2-(4-methoxymethylthiophenyl)-2-methylpropyl ether] | 100% | 100% | 90% | 100% |  | > 1 µg/mL | 95% | 100% | > 95% | 100% | 100% |  |  |  |  | 
CC(C)(COCc1ccc(F)c(Oc2cccc(Cl)c2)c1)c1ccc(Cl)cc1 [Compound 9, 3-(3-Chlorophenoxy)-4-fluorobenzyl 2-(4-chlorophenyl)-2-methylpropyl ether] |  |  |  |  |  | > 1 µg/mL |  |  |  |  |  | > 500 mg/kg |  |  |  | 
COc1ccc(C(C)(C)COCc2ccc(F)c(Oc3ccccc3)c2)cc1 [Compound 16, 3-Phenoxy-4-fluorobenzyl 2-(4-methoxyphenyl)-2-methylpropyl ether] |  |  |  |  |  | > 0.5 µg/mL | 80% | 100% |  | 90% | 100% |  |  |  |  | 
CCOc1ccc(C(C)(C)COCc2ccc(F)c(Oc3ccccc3)c2)cc1 [Compound 36, 3-Phenoxy-4-fluorobenzyl 2-(4-ethoxyphenyl)-2-methylpropyl ether] | 100% | 100% | 100% | 100% |  |  | 100% | 100% | > 95% | 100% | 100% | > 500 mg/kg | 100% | 100% | 100% | 100%
CCCCOc1ccc(C(C)(C)COCc2ccc(F)c(Oc3ccccc3)c2)cc1 [Compound 49] | 100% | 100% | 100% | 100% |  | ~0.5 µg/mL (≈ 1.18 µM) |  |  | > 95% | 100% | 100% |  |  |  |  | 
CC(C)Sc1ccc(C(C)(C)COCc2ccc(F)c(Oc3ccccc3)c2)cc1 [Compound 54, 3-Phenoxy-4-fluorobenzyl 2-(4-isopropylthiophenyl)-2-methylpropyl ether] |  |  |  |  | 100% |  | 100% | 100% | > 95% | 100% | 100% | > 500 mg/kg |  |  |  | 
CC(C)(COCc1ccc(F)c(Oc2ccc(F)cc2)c1)c1ccc(Cl)c(Cl)c1 [Compound 24, 3-(4-Fluorophenoxy)-4-fluorobenzyl 2-(3,4-dichlorophenyl)-2-methylpropyl ether] |  |  |  |  |  | > 1 µg/mL | 90% | 100% |  |  |  |  |  |  |  | 
COc1ccc(C(C)(C)COCc2ccc(F)c(Oc3ccc(F)cc3)c2)cc1 [Compound 5, 3-(4-Fluorophenoxy)-4-fluorobenzyl 2-(4-methoxyphenyl)-2-methylpropyl ether] | 100% | 100% | 100% | 100% |  | > 1 µg/mL |  |  |  |  |  | > 500 mg/kg |  |  |  | 
Cc1cccc(C(C)(C)COCc2ccc(F)c(Oc3ccccc3)c2)c1 [Compound 19, 3-phenoxy-4-fluorobenzyl 2-(3-methylphenyl)-2-methylpropylether] |  |  |  |  |  | > 1 µg/mL | 100% | 100% |  | 90% | 100% |  |  |  |  | 
CC(C)(COCc1ccc(F)c(Oc2ccccc2)c1)c1ccc(Cl)c(Cl)c1 [Compound 14, 3-Phenoxy-4-fluorobenzyl 2-(3,4-dichlorophenyl)-2-methylpropyl ether] |  |  |  |  | 100% | > 1 µg/mL | 100% | 100% |  |  |  |  |  |  |  | 
Cc1ccc(C(C)(C)COCc2cc(Oc3ccccc3)ccc2Cl)cc1 [Compound 31, 3-Phenoxy-6-chlorobenzyl 2-(4-methylphenyl)-2-methylpropyl ether] |  |  |  |  |  | > 10 µg/mL |  |  |  |  |  | > 500 mg/kg |  |  |  | 
CCC(C)(COCc1ccc(F)c(Oc2ccccc2)c1)c1ccc(Cl)cc1 (stereo not shown) [Compound 20, 3-Phenoxy-4-fluorobenzyl 2-(4-chlorophenyl)-2-methylbutyl ether] | 100% | 100% | 100% | 100% | 100% | > 1 µg/mL | 100% | 100% |  | 100% | 100% | > 500 mg/kg |  |  |  | 
CC(C)(COCc1cc(Oc2ccccc2)ccc1Cl)c1ccc(Cl)cc1 [Compound 7, 3-phenoxy-6-chlorobenzyl 2-(4-chlorophenyl)-2-methylpropyl ether] |  |  |  |  |  | > 10 µg/mL |  |  |  |  |  | > 500 mg/kg |  |  |  | 
CC(C)(COCc1cc(Oc2ccccc2)ccc1Br)c1ccc(Cl)cc1 [Compound 26, 3-Phenoxy-6-bromobenzyl 2-(4-chlorophenyl)-2-methylpropyl ether] |  |  |  |  |  | > 10 µg/mL |  |  |  |  |  | > 500 mg/kg |  |  |  | 

From patent publication US4599362A, “2-aryl-ethyl ether derivatives and insecticidal and acaricidal agents containing said derivatives” (priority 1980, dated 1986)
